From ChEMBL document CHEMBL5321210, “N-adamantyl-anthranil amide derivatives: New selective ligands for the cannabinoid receptor subtype 2 (CB2R)” (Eur J Med Chem, 2023)
Activity calls are given as the source filed them. The calls are words filed in the database; no cut-off is given here.

Experiments:
THP-1 [1] = assay: Antiinflammatory activity against LPS-activated human THP-1 monocytes assessed as increase in IL-10 production at 10 uM incubated for 24 hrs by ELISA coupled qRT-PCR analysis; type: functional, cell-based
THP-1 [2] = assay: Antiinflammatory activity in human THP-1 monocytes assessed as decrease in IL-1beta production at 10 uM incubated for 24 hrs by ELISA coupled qRT-PCR analysis relative to control; type: functional; set-up: scale not given: the % may be the effect or the level left
THP-1 [3] = assay: Antiinflammatory activity against LPS-activated human THP-1 monocytes assessed as increase in IL-4 production at 10 uM incubated for 24 hrs in the presence of N-(adamantan-1-yl)-4-(pentylamino)-[1,1'-biphenyl]-3-carboxamide by ELISA coupled qRT-PCR analysis; type: functional, cell-based
THP-1 [4] = assay: Antiinflammatory activity against LPS-activated human THP-1 monocytes assessed as decrease in IL-1beta production at 10 uM incubated for 24 hrs by ELISA coupled qRT-PCR analysis; type: functional, cell-based
THP-1 [5] = assay: Antiinflammatory activity against LPS-activated human THP-1 monocytes assessed as decrease in IFN-gamma production at 10 uM incubated for 24 hrs by ELISA coupled qRT-PCR analysis; type: functional, cell-based
THP-1 [6] = assay: Antiinflammatory activity in PMA-differentiated human THP-1 macrophages assessed as increase in IL-10 production at 10 uM incubated for 24 hrs by ELISA coupled qRT-PCR analysis; type: functional, cell-based
THP-1 [7] = assay: Antiinflammatory activity against LPS-activated PMA-differentiated human THP-1 monocytes assessed as increase in IL-10 production at 10 uM incubated for 24 hrs in the presence of N-(adamantan-1-yl)-4-(pentylamino)-[1,1'-biphenyl]-3-carboxamide by ELISA coupled qRT-PCR analysis; type: functional, cell-based
THP-1 [8] = assay: Antiinflammatory against LPS-activated human THP-1 monocytes assessed as decrease in IL-6 production at 10 uM incubated for 24 hrs in the presence of JTE907 by ELISA coupled qRT-PCR analysis; type: functional, cell-based
THP-1 [9] = assay: Antiinflammatory activity against LPS-activated PMA-differentiated human THP-1 macrophages assessed as decrease in IL-6 production at 10 uM incubated for 24 hrs by ELISA coupled qRT-PCR analysis relative to control; type: functional; set-up: scale not given: the % may be the effect or the level left
THP-1 [10] = assay: Antiinflammatory activity in human THP-1 monocytes assessed as decrease in TNF-alpha production at 10 uM incubated for 24 hrs by ELISA coupled qRT-PCR analysis relative to control; type: functional; set-up: scale not given: the % may be the effect or the level left
THP-1 [11] = assay: Antiinflammatory activity against LPS-activated PMA-differentiated human THP-1 monocytes assessed as increase in IL-4 production at 10 uM incubated for 24 hrs in the presence of N-(adamantan-1-yl)-4-(pentylamino)-[1,1'-biphenyl]-3-carboxamide by ELISA coupled qRT-PCR analysis; type: functional, cell-based
THP-1 [12] = assay: Antiinflammatory activity in human THP-1 monocytes assessed as decrease in IL-1beta production at 10 uM incubated for 24 hrs in the presence of N-(adamantan-1-yl)-4-(pentylamino)-[1,1'-biphenyl]-3-carboxamide by ELISA coupled qRT-PCR analysis; type: functional, cell-based
THP-1 [13] = assay: Antiinflammatory activity against LPS-activated PMA-differentiated human THP-1 monocytes assessed as decrease in IFN-gamma production at 10 uM incubated for 24 hrs in the presence of N-(adamantan-1-yl)-4-(pentylamino)-[1,1'-biphenyl]-3-carboxamide by ELISA coupled qRT-PCR analysis; type: functional, cell-based
THP-1 [14] = assay: Antiinflammatory activity against LPS-activated human THP-1 monocytes assessed as increase in IL-4 production at 10 uM incubated for 24 hrs by ELISA coupled qRT-PCR analysis; type: functional, cell-based
THP-1 [15] = assay: Antiinflammatory activity in human THP-1 monocytes assessed as decrease in IL-6 production at 10 uM incubated for 24 hrs by ELISA coupled qRT-PCR analysis relative to control; type: functional; set-up: scale not given: the % may be the effect or the level left
THP-1 [16] = assay: Antiinflammatory activity in LPS-activated PMA-differentiated human THP-1 macrophages assessed as increase in IL-10 production at 10 uM incubated for 24 hrs in the presence of JTE907 by ELISA coupled qRT-PCR analysis; type: functional, cell-based
THP-1 [17] = assay: Antiinflammatory activity against LPS-activated human THP-1 monocytes assessed as decrease in TNF-alpha production at 10 uM incubated for 24 hrs by ELISA coupled qRT-PCR analysis; type: functional, cell-based
THP-1 [18] = assay: Antiinflammatory activity in human THP-1 monocytes assessed as decrease in IL-1beta production at 10 uM incubated for 24 hrs in the presence of JTE907 by ELISA coupled qRT-PCR analysis; type: functional, cell-based
THP-1 [19] = assay: Antiinflammatory activity against LPS-activated PMA-differentiated human THP-1 macrophages assessed as decrease in IFN-gamma production at 10 uM incubated for 24 hrs by ELISA coupled qRT-PCR analysis relative to control; type: functional; set-up: scale not given: the % may be the effect or the level left
THP-1 [20] = assay: Antiinflammatory activity in human THP-1 monocytes assessed as decrease in IFN-gamma production at 10 uM incubated for 24 hrs by ELISA coupled qRT-PCR analysis relative to control; type: functional; set-up: scale not given: the % may be the effect or the level left
THP-1 [21] = assay: Antiinflammatory activity in PMA-differentiated human THP-1 macrophages assessed as increase in IL-4 production at 10 uM incubated for 24 hrs in the presence of JTE907 by ELISA coupled qRT-PCR analysis; type: functional, cell-based
THP-1 [22] = assay: Antiinflammatory activity against LPS-activated human THP-1 monocytes assessed as decrease in IL-6 production at 10 uM incubated for 24 hrs by ELISA coupled qRT-PCR analysis; type: functional, cell-based
THP-1 [23] = assay: Antiinflammatory against LPS-activated human THP-1 monocytes assessed as increase in IL-4 production at 1 to 10 uM incubated for 24 hrs in the presence of JTE907 by ELISA coupled qRT-PCR analysis; type: functional, cell-based; settings: dose 1-10 µM
THP-1 [24] = assay: Antiinflammatory activity against LPS-activated PMA-differentiated human THP-1 macrophages assessed as increase in IL-10 production at 1 to 10 uM incubated for 24 hrs by ELISA coupled qRT-PCR analysis; type: functional, cell-based; settings: dose 1-10 µM
THP-1 [25] = assay: Antiinflammatory activity in PMA-differentiated human THP-1 macrophages assessed as increase in IL-10 production at 1 to 10 uM incubated for 24 hrs by ELISA coupled qRT-PCR analysis; type: functional, cell-based; settings: dose 1-10 µM
THP-1 [26] = assay: Antiinflammatory activity in PMA-differentiated human THP-1 macrophages assessed as increase in IL-4 production at 1 to 10 uM incubated for 24 hrs by ELISA coupled qRT-PCR analysis; type: functional, cell-based; settings: dose 1-10 µM
THP-1 [27] = assay: Antiinflammatory activity in human THP-1 monocytes assessed as decrease in IFN-gamma production at 1 to 10 uM incubated for 24 hrs in the presence of JTE907 by ELISA coupled qRT-PCR analysis; type: functional, cell-based; settings: dose 1-10 µM
THP-1 [28] = assay: Antiinflammatory activity in LPS-activated PMA-differentiated human THP-1 macrophages assessed as decrease in IL-6 production at 1 to 10 uM incubated for 24 hrs in the presence of JTE907 by ELISA coupled qRT-PCR analysis; type: functional, cell-based; settings: dose 1-10 µM
Cannabinoid receptor 2 = Cannabinoid receptor 2 (Homo sapiens, UniProt P34972); assay: Displacement of [3H]-CP55940 from human CB2 receptor expressed in HEK293 cell membrane assessed as inhibition constant incubated for 90 mins by radioligand competition binding assay; type: cell membranes
Sequence of Cannabinoid receptor 2 (P34972 whole entry): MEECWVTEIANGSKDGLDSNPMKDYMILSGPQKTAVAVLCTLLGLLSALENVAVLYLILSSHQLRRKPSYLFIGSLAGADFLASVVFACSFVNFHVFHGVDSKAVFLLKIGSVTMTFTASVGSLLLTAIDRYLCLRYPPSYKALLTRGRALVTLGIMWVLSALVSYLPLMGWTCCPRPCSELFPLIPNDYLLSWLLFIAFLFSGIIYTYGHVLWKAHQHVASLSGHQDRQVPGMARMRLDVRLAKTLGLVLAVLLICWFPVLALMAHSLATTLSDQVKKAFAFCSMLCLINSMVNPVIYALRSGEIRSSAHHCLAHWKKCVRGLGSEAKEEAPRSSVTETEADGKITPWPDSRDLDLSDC

SMILES | Activity (THP-1 [1]) | Activity (THP-1 [2]) [%] | Activity (THP-1 [4]) | Activity (THP-1 [5]) | Activity (THP-1 [10]) [%] | Activity (THP-1 [14]) | Activity (THP-1 [15]) [%] | Activity (THP-1 [17]) | Activity (THP-1 [20]) [%] | Activity (THP-1 [22]) | further results
O=C(NC1CCCCC1)c1cn(CCN2CCOCC2)c2cc(Cl)ccc2c1=O | Active | 60 | Active | Active | 60 | Active | 60 | Active | 40 | Active | Activity (THP-1 [3]): inactive; Activity (THP-1 [6]): Active; Activity (THP-1 [7]): inactive; Activity (THP-1 [8]): inactive; Activity (THP-1 [9]): 70%; Activity (THP-1 [11]): inactive; Activity (THP-1 [12]): inactive; Activity (THP-1 [13]): inactive; Activity (THP-1 [16]): inactive; Activity (THP-1 [18]): inactive; Activity (THP-1 [19]): 70%; Activity (THP-1 [21]): inactive
CCCCCNc1ccccc1C(=O)NC12CC3CC(CC(C3)C1)C2 | Active | 50 | Active | Active | 50 | Active | 40 | Active | 50 | Active | Activity (THP-1 [23]): inactive; Activity (THP-1 [24]): Active; Activity (THP-1 [25]): Active; Activity (THP-1 [26]): Active; Activity (THP-1 [27]): inactive; Activity (THP-1 [28]): inactive; Ki (Cannabinoid receptor 2): 55.7 nM
